{
  "source": "patent US6939569B1",
  "about": "“Medical device having anti-infective and contraceptive properties” (Oxibio, Inc., priority 1998, dated 2005)",
  "key": {"C. albicans (ATCC 66027)": {"test_system": "C. albicans (ATCC 66027)", "assay": "Microbicidal activity of iodate/iodide silicone tablet formulations in inoculated BHI, pH 4.0", "assay_type": "cell-based", "details": "together with iodate threshold", "description": "Experiments were performed to optimize formulations used in fabricating the inventive device formulated with silicone elastomer. […] The polymer was allowed to cure with dibutyl tin dilaurate catalyst additions, and then devices were prepared (0.6 cm diameter 0.3 mm thick) using “hole punch” tablets from the disc shaped device to test for microbicidal activity using C. albicans inoculated BHI. […] Tablets obtained from the fabricated device were suspended in the inoculum at 1 tablet/ml. At varying intervals, aliquots of the inoculum, incubated at 35° C. in air, were subcultured to sheep blood agar plates and incubated for an additional 24 hours at 35° C. in air to determine the effect of the varying formulations on the C. albicans inoculums."}},
  "data": [
    {"compound": "I", "note": "[iodide]", "values": [
      {"measurement": "critical media concentration of iodide necessary to effect C. albicans killing", "setting": "C. albicans (ATCC 66027)", "value": "≥ 0.5", "unit": "mM"}
    ]},
    {"compound": "II", "note": "[elemental iodine]", "values": [
      {"measurement": "elemental iodine concentrations required to affect microbial killing", "setting": "C. albicans", "value": "< 0.01", "unit": "%"}
    ]}
  ]
}
